Laboratory results published in patent publication US20050250175A1, “Bacterial cell wall skeleton component preparaion” (priority 2002, published 2005).

Assay: Viscosity of paste comprising BCG-CWS, co-axial bicylindrical viscometer
Assay type: physicochemical
Details: unit not given
Experimental: “Viscosity” as used herein means a value determined by dynamic viscoelasticity measurement, for example, values obtained using a co-axial bicylindrical viscometer. In the present invention, viscosity may be measured using a co-axial bicylindrical viscometer manufactured by Rheology Co., Ltd (Model MR-300, Soliquid meter) at 25° C. under nitrogen atmosphere. One poise represents 0.1 Pa·s (pascal.sec).
The viscosity of the paste was measured at 25° C. using a co-axial bicylindrical viscometer manufactured by Rheology Co., Ltd (Model MR-300, Soliquid meter). The viscosity was measured to be 0.545 poise.

## CC(C)CCCC(C)CCCC(C)CCCCC(C)CCCC(C)CCCC(C)C (stereo not shown) [squalane]
  viscosity: 0.236
